From article PMC9901164, “Cloning and characterization of nitrate reductase gene in kelp Saccharina japonica (Laminariales, Phaeophyta)” (BMC Plant Biology, 2023)

Tests used:
[1] = molecular target: T1, rSjNR-S (Saccharina japonica, UniProt A0A977LKQ3); assay: Griess colorimetric nitrite assay, single concentration; assay type: biochemical; settings: 5 mM KNO3, 0.2 mM NADH, 100 mM HEPES pH 7.6, 10 μM FAD, 10 μM sodium molybdate, 10 mM MgCl2, 5 mM DTT, 24 °C
T1 construct: E. coli BL21(DE3) pCold-SUMO-10His, Ni-NTA, SUMO tag cut off
T1 sequence (A0A977LKQ3 1-705): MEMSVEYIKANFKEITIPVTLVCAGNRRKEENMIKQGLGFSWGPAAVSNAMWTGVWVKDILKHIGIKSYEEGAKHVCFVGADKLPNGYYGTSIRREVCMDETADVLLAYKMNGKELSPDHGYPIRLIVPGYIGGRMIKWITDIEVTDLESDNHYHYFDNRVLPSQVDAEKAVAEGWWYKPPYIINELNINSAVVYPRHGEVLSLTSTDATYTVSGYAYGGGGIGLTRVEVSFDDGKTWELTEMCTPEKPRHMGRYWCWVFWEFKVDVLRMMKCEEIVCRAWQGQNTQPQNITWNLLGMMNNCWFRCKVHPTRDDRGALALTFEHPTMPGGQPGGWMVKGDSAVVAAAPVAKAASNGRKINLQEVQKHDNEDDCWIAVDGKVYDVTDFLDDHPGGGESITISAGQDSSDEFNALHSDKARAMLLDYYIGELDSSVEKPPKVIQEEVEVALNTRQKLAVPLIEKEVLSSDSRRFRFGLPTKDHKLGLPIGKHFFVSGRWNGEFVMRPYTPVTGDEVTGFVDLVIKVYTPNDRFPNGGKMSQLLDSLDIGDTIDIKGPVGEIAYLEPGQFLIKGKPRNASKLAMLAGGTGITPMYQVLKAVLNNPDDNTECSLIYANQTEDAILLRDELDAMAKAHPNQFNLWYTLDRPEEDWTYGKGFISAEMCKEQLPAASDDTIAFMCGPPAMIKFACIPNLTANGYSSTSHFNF

[2] = substrate: O=[N+]([O-])O; assay: Griess colorimetric nitrite assay, Michaelis-Menten nonlinear regression; assay type: biochemical, Saccharina japonica; settings: 0.2 mM NADH, 100 mM HEPES pH 7.6, 10 μM FAD, 10 μM sodium molybdate, 10 mM MgCl2, 5 mM DTT, 24 °C, KNO3 0-20 mM, apparent

## O=[N+]([O-])O [KNO3]
[1]
  Griess colorimetric nitrite assay, single concentration: both rSjNR-L and rSjNR-S showed NR activity in vitro

## NC(=O)C1=CN([C@@H]2O[C@H](COP(=O)(O)OP(=O)(O)OC[C@H]3O[C@@H](n4cnc5c(N)ncnc54)[C@H](O)[C@@H]3O)[C@@H](O)[C@H]2O)C=CC1 [NADH]
[1]; electron donor
  Griess colorimetric nitrite assay, single concentration: the activity of rSjNR-S was lower than that of rSjNR-L

B1: rSjNR-L (Saccharina japonica) (protein)
chain: MASGIQSCKPEKADASLVNIKGHDYYKDTFVPPAEDVTEIDPRDKGTPDDWVPRHPELVRLTGRHPFNVEPPVWRIKDHGFISPNSLHYVRNHGAVPRIVQGDSHKVRFGGAIDKPMEMSVEYIKANFKEITIPVTLVCAGNRRKEENMIKQGLGFSWGPAAVSNAMWTGVWVKDILKHIGIKSYEEGAKHVCFVGADKLPNGYYGTSIRREVCMDETADVLLAYKMNGKELSPDHGYPIRLIVPGYIGGRMIKWITDIEVTDLESDNHYHYFDNRVLPSQVDAEKAVAEGWWYKPPYIINELNINSAVVYPRHGEVLSLTSTDATYTVSGYAYGGGGIGLTRVEVSFDDGKTWELTEMCTPEKPRHMGRYWCWVFWEFKVDVLRMMKCEEIVCRAWQGQNTQPQNITWNLLGMMNNCWFRCKVHPTRDDRGALALTFEHPTMPGGQPGGWMVKGDSAVVAAAPVAKAASNGRKINLQEVQKHDNEDDCWIAVDGKVYDVTDFLDDHPGGGESITISAGQDSSDEFNALHSDKARAMLLDYYIGELDSSVEKPPKVIQEEVEVALNTRQKLAVPLIEKEVLSSDSRRFRFGLPTKDHKLGLPIGKHFFVSGRWNGEFVMRPYTPVTGDEVTGFVDLVIKVYTPNDRFPNGGKMSQLLDSLDIGDTIDIKGPVGEIAYLEPGQFLIKGKPRNASKLAMLAGGTGITPMYQVLKAVLNNPDDNTECSLIYANQTEDAILLRDELDAMAKAHPNQFNLWYTLDRPEEDWTYGKGFISAEMCKEQLPAASDDTIAFMCGPPAMIKFACIPNLTANGYSSTSHFNF
notes: E. coli BL21(DE3) pCold-SUMO-10His, Ni-NTA, SUMO tag cut off
[2]
  Km: 0.42 (± 0.059) mM
